Assay results reported in publication PMC6851657 (Clinical Pharmacology and Therapeutics, 2019).

Target: T1, CYP2B6 (Homo sapiens, UniProt P20813)
T1 sequence (P20813 1-491): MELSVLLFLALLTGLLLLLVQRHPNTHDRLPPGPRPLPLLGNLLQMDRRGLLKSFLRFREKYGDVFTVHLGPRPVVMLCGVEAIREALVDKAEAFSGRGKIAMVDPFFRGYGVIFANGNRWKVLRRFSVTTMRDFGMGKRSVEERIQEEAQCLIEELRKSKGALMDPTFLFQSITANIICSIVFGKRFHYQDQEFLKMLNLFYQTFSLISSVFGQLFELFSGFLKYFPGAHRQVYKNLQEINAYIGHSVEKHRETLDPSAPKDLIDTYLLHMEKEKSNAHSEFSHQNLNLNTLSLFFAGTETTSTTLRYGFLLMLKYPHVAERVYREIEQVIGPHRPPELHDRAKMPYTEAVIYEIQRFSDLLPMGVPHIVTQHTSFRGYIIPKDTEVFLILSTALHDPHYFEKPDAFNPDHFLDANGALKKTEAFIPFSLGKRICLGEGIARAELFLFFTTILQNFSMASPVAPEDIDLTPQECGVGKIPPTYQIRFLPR
Experiment: Enzyme phenotyping, intrinsic clearance by retrograde calculation
Format: in vitro ADME

- In vitro intrinsic clearance (CYP2B6): 0.733 µL/min/pmol
- fmCYP2B6 (fraction metabolized): 0.004
Compound: CCc1cc(/C(C)=N/OCc2ccc(C3CCCCC3)c(C(F)(F)F)c2)ccc1CN1CC(C(=O)O)C1 [siponimod]
